Results taken from patent publication US9216978B2, “Ring-fused pyrimidines and triazines and use thereof for the treatment and/or prophylaxis of cardiovascular diseases” (BAYER INTELLECTUAL PROPERTY GMBH, priority 2010, dated 2015).

Experiments:
[1] = Determination of pharmacokinetic parameters after intravenous administration in rats; format: in vivo, rat; conditions: intravenous administration of 0.3 mg/kg; for MRT / half-life: male, Wistar, rat, plasma; for MRT: read-out: mean residence time; for half-life: read-out: terminal half-life (converted)
Protocol: B-4. Determination of Pharmacokinetic Parameters after Intravenous and Oral Administration
The pharmacokinetic parameters of the compounds of the formula (I) according to the invention are determined in male CD-1 mice, male Wistar rats and/or female beagles. The administration volume is 5 ml/kg for mice, 5 ml/kg for rats and 0.5 ml/kg for dogs. Intravenous administration is via a formulation of species-specific plasma/DMSO (99/1) in the case of mice and rats and via water/PEG400/ethanol (50/40/10 or 30/60/10) in the case of dogs. For easier removal of blood, a silicone catheter is inserted into the right Vena jugularis externa of the rats before the administration of substance. The surgical intervention takes place one day prior to the experiment with isofluran anaesthesia and administration of an analgetic (atropine/rimadyl (3/1) 0.1 ml s.c.). Substance administration is as i.v. bolus in the case of mice and rats and via a 15-minute infusion in the case of dogs. Removal of blood is after 0.033, 0.083, 0.17, 0.5, 1, 2, 3, 4, 6, 7 and 24 hours in the case of rats, after 0.033, 0.083, 0.17, 0.5, 1, 2, 3, 4, 6, 7, 24, 48 and 72 hours in the case of mice and after 0.083, 0.25, 0.28 0.33, 0.42, 0.75, 1, 2, 3, 4, 6, 7 and 24 hours in the case of dogs. For all species, oral administration of the dissolved substance via gavage is carried out based on a water/PEG400/ethanol formulation (50/40/10). Here, the removal of blood from rats is after 0.083, 0.17, 0.5, 0.75, 1, 2, 3, 4, 6, 7 and 24 hours and from dogs after 0.083, 0.17, 0.5, 0.75, 1, 2, 3, 4, 6, 7, 24, 30 and 48 hours. The blood is removed into heparinized tubes. The blood plasma is then obtained by centrifugation; if required, it can be stored at −20° C. until further processing.
An internal standard (ZK 228859) is added to the samples of the compounds of the formula (I) according to the invention, calibration samples and QCs, and the protein is precipitated using excess acetonitrile. After addition of an ammonium acetate buffer (0.01 M, pH 6.8) and subsequent vortexing, the mixture is centrifuged at 1000 g and the supernatant is examined by LC-MS/MS (API 4000, AB Sciex). Chromatographic separation is carried out on an Agilent 1100-HPLC. The injection volume is 10 μl. The separation column used is a Phenomenex Luna 5μ C8(2) 100 A 50×2 mm, adjusted to a temperature of 40° C. A binary mobile phase gradient at 500 μl/min is used (A: 0.01 M ammonium acetate buffer pH 6.8, B: 0.1% formic acid in acetonitrile): 0 min (90% A), 1 min (90% A), 3 min (15% A), 4 min (15% A), 4.50 min (90% A), 6 min (90% A). The temperature of the Turbo V ion source is 500° C. The following MS instrument parameters are used: curtain gas 15 units, ion spray voltage 4.8 kV, gas 1 45 units, gas 2 35 units, CAD gas 40 units. The substances are quantified by peak heights or areas using extracted ion chromatograms of specific MRM experiments.
The pharmacokinetic parameters such as AUC, Cmax, t1/2 (terminal half-life), MRT (mean residence time) and CL (clearance) are calculated by means of the validated pharmacokinetics calculation program KinEx (Vers. 2.5 and 3) from the plasma concentration-time curves obtained.
As substance quantification takes place in plasma, the blood/plasma distribution of the substance must be determined for appropriate adjustment of the pharmacokinetic parameters. For this, a defined amount of the substance in heparinized whole blood of the corresponding species is incubated for 20 min in the tumbling roller mixer. After centrifugation at 1000 g, the plasma concentration is measured (see above) and the Cblood/Cplasma value is determined by finding the quotient.
Following intravenous administration of 0.3 mg/kg of Example 1, 18, 19 and 27 in rats, the following values were recorded: […]

aorta = experiment: Vessel-relaxing action in vitro (phenylephrine-contracted aorta rings); conditions: Oryctolagus cuniculus; rabbit aorta rings, phenylephrine contraction; concentration reducing control contraction by 50%
Protocol: B-1. Vessel-Relaxing Action In Vitro
Rabbits are stunned with a blow on the back of the neck and exsanguinated. The aorta is removed, freed from adhering tissue, separated into rings with a width of 1.5 mm, and placed individually, with preloading, in 5-ml organ baths with carbogen-gassed Krebs-Henseleit solution at 37° C. with the following composition (mM in each case): sodium chloride: 119; potassium chloride: 4.8; calcium chloride dihydrate: 1; magnesium sulphate heptahydrate: 1.4; potassium dihydrogen phosphate: 1.2; sodium hydrogen carbonate: 25; glucose: 10. The contraction force is recorded with Statham UC2 cells, amplified and digitized via an A/D converter (DAS-1802 HC, Keithley Instruments Munich) and recorded in parallel on a continuous-line recorder. To produce contraction, phenylephrine is added to the bath cumulatively in increasing concentration. After several control cycles, the test substance is added in increasing dosage in each subsequent pass and the level of contraction is compared with the level of contraction reached in the immediately preceding pass. This is used for calculating the concentration that is required to reduce the level of the control value by 50% (IC50 value). The standard application volume is 5 μl, and the proportion of DMSO in the bath solution corresponds to 0.1%.

[2] = biological target: T1, recombinant guanylate cyclase reporter cell line (Rattus norvegicus, UniProt P19686+P20595); experiment: Action on recombinant guanylate cyclase reporter cell line; format: cell-based
T1 construct: expressed in transfected cells
T1 sequence (P20595 1-619): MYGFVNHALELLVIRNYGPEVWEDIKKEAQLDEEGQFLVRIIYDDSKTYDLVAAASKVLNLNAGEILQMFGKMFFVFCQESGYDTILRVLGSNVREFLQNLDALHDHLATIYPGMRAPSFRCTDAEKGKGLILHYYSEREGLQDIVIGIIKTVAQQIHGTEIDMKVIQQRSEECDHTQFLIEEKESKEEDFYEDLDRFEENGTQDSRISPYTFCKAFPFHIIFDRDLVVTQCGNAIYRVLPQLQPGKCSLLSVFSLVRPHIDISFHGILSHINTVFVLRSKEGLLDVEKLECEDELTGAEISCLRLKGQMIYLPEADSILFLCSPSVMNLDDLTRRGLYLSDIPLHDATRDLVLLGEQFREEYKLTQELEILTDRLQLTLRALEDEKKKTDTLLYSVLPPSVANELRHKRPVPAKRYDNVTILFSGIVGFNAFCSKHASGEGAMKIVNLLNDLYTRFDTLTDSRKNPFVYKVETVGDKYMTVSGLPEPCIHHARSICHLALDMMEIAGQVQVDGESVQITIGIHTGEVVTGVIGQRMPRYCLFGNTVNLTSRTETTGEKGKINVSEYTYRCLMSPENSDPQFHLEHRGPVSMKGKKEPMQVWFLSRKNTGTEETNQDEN
T1 sequence (P19686 1-690): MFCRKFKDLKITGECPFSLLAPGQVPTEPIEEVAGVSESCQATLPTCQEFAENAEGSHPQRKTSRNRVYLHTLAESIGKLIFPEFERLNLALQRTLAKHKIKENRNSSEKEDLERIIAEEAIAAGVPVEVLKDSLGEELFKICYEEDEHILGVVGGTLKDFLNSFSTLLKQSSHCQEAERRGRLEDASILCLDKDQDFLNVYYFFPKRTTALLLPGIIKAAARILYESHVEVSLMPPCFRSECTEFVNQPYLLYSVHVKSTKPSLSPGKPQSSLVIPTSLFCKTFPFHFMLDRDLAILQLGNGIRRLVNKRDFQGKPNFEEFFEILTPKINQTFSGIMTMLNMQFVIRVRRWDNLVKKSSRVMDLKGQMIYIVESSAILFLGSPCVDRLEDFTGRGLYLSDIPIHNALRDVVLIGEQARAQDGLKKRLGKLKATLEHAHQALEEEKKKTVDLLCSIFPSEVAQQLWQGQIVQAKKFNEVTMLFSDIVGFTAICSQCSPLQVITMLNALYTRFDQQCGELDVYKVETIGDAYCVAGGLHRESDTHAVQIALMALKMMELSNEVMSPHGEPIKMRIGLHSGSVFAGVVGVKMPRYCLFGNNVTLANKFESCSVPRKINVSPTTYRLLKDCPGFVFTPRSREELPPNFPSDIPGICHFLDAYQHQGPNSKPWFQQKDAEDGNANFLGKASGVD
Protocol: B-2. Action on Recombinant Guanylate Cyclase Reporter Cell Line
The cellular action of the compounds according to the invention is determined on a recombinant guanylate cyclase reporter cell line, as described in F. Wunder et al., Anal. Biochem. 339, 104-112 (2005).

Row | SMILES | CLblood [1] [mL/min/kg] | MRT [1] [h] | half-life [1] [h] | IC50 (aorta) [nM] | MEC (minimal effective concentration) [2] [µM]
1 | O=C1Nc2nc(-c3nn(Cc4ccccc4F)c4ncccc34)ncc2C1(O)C(F)(F)F (stereo not drawn) [Example 18, 2-[1-(2-Fluorobenzyl)-1H-pyrazolo[3,4-b]pyridin-3-yl]-5-hydroxy-5-(trifluoromethyl)-5,7-dihydro-6H-pyrrolo[2,3-d]pyrimidin-6-one] | 7.67 | 1.9 | 1.4 | 93 | 0.03
2 | CC(C)(C)OC(=O)CC1(O)C(=O)Nc2nc(-c3nn(Cc4ccccc4F)c4ncccc34)ncc21 (stereo not drawn) [Example 24, tert-Butyl {2-[1-(2-fluorobenzyl)-1H-pyrazolo[3,4-b]pyridin-3-yl]-5-hydroxy-6-oxo-6,7-dihydro-5H-pyrrolo[2,3-d]pyrimidin-5-yl}acetate] |  |  |  | 269 | 0.3
3 | COC(=O)NC1C(=O)Nc2nc(-c3nn(Cc4ccccc4F)c4ncccc34)ncc21 (stereo not drawn) [Example 26, Methyl {2-[1-(2-fluorobenzyl)-1H-pyrazolo[3,4-b]pyridin-3-yl]-6-oxo-6,7-dihydro-5H-pyrrolo[2,3-d]pyrimidin-5-yl}carbamate] |  |  |  | 840 | 0.3
4 | CC1(C)C(=O)Nc2nc(-c3nn(Cc4ccc(F)cc4F)c4ncccc34)nnc21 [Example 28, 3-[1-(2,4-Difluorobenzyl)-1H-pyrazolo[3,4-b]pyridin-3-yl]-7,7-dimethyl-5,7-dihydro-6H-pyrrolo[2,3-e][1,2,4]triazin-6-one] |  |  |  | 103 | 0.3
5 | O=C1Nc2nc(-c3nn(Cc4ccccc4F)c4ncc(F)cc34)ncc2C12CC2 [Example 30, 2′-[5-Fluoro-1-(2-fluorobenzyl)-1H-pyrazolo[3,4-b]pyridin-3-yl]spiro[cyclopropane-1,5′-pyrrolo[2,3-d]pyrimidin]-6′(7′H)-one] |  |  |  | 97 | 0.03

The next compounds have a lower IC50 (aorta) than those just listed; values first:

Row | CLblood [1] [mL/min/kg] | MRT [1] [h] | half-life [1] [h] | IC50 (aorta) [nM] | MEC (minimal effective concentration) [2] [µM] | SMILES
6 | 5.83 | 7.3 | 5.6 | 54 | 0.03 | CC1(C)C(=O)Nc2nc(-c3nn(Cc4cccc(F)c4F)c4ncccc34)nnc21 [Example 27, 3-[1-(2,3-Difluorobenzyl)-1H-pyrazolo[3,4-b]pyridin-3-yl]-7,7-dimethyl-5,7-dihydro-6H-pyrrolo[2,3-e][1,2,4]triazin-6-one]
7 |  |  |  | 45 | 0.03 | CC1(C)C(=O)Nc2nc(-c3nn(Cc4cccc(F)c4F)c4ncc(F)cc34)nnc21 [Example 20, 3-[1-(2,3-Difluorobenzyl)-5-fluoro-1H-pyrazolo[3,4-b]pyridin-3-yl]-7,7-dimethyl-5,7-dihydro-6H-pyrrolo[2,3-e][1,2,4]triazin-6-one]
8 |  |  |  | 15 | 0.03 | CC1(F)C(=O)Nc2nc(-c3nn(Cc4ccccc4F)c4ncccc34)ncc21 (stereo not drawn) [Example 23, 5-Fluoro-2-[1-(2-fluorobenzyl)-1H-pyrazolo[3,4-b]pyridin-3-yl]-5-methyl-5,7-dihydro-6H-pyrrolo[2,3-d]pyrimidin-6-one]
9 | 18.3 | 1.2 | 0.9 | 12 | 0.01 | CC1(C)C(=O)Nc2nc(-c3nn(Cc4ccccc4F)c4ncccc34)ncc21 [Example 1, 2-[1-(2-Fluorobenzyl)-1H-pyrazolo[3,4-b]pyridin-3-yl]-5,5-dimethyl-5,7-dihydro-6H-pyrrolo[2,3-d]pyrimidin-6-one]
